Where two headings read alike, the source gives them in different places.
Assays:
[1] = system: Senktide-induced bilateral ovariectomy rats; test: Tail skin temperature in a Senktide-induced bilateral ovariectomy rat model; type: in vivo; conditions: OVX SD rats, oral 30 mg/kg, 30 min before s.c. Senktide, tail skin temperature over 75 min
From the text: Pharmacodynamic Study of the Test Compounds on Tail Skin Temperature in a Senktide-Induced Bilateral Ovariectomy Rat Model
To evaluate the effect of the test compounds on tail skin temperature in Senktide-induced bilateral ovariectomy rats.
2.3. Experimental Animals • Ten-Week-old female bilateral ovariectomy SD rats were purchased from Beijing Vital River Laboratory Animal Technology Co., Ltd. The animals were housed in a SPF grade animal facility with 5 SD rats per cage. The cages, bedding, feed and water were disinfected at high temperatures before use. All animals had free access to food and water.
Ten-week-old female SD rats were subjected to bilateral ovariectomy and recovered for two weeks, and then randomly divided into negative control group, model group and drug administration group (8 rats per group), based on body weight. The probe was attached to the dorsal surface of the rat tail with medical tape, 1-2 cm away from the tailhead of the rat.
The vehicle was administered orally to the negative control group and the model group, and different test compounds were administered orally to each drug administration group at a dose of 30 mg/kg and a volume of 10 mL/kg.
Thirty minutes after the oral administration of the vehicle or test compound, the negative control group was injected subcutaneously with normal saline (at a volume of 5 mL/kg); the model group and each drug administration group were injected subcutaneously with 0.2 mg/mL of Senktide (at a volume of 5 mL/kg) to induce the hot flashes-like symptom.
The change in tail skin temperature (ΔTST) at each time point relative to time point 0 was calculated, the ΔTST-time curve of the change in tail skin temperature was plotted, and the area under curve (AUCΔTST) was calculated. ΔTST=TSTn−TST0, TST0 is the tail skin temperature at 0 minute before the subcutaneous injection of normal saline or Senktide; TSTn is the tail skin temperature at the n minute after the subcutaneous injection.
AUCΔTST=Σ(ΔTSTn+ΔTSTn+5)*5/2

NK3 receptors [2] = biological target: T1, NK3 receptors (Homo sapiens, UniProt P29371); test: Antagonism of IP1 in HEK293 cells with stable expression of NK3; type: cell-based; conditions: agonist Senktide 3 nM, read-out: NK3R IC50 (nM) IP1
T1 construct: expressed in transfected cells
T1 sequence (P29371 1-465): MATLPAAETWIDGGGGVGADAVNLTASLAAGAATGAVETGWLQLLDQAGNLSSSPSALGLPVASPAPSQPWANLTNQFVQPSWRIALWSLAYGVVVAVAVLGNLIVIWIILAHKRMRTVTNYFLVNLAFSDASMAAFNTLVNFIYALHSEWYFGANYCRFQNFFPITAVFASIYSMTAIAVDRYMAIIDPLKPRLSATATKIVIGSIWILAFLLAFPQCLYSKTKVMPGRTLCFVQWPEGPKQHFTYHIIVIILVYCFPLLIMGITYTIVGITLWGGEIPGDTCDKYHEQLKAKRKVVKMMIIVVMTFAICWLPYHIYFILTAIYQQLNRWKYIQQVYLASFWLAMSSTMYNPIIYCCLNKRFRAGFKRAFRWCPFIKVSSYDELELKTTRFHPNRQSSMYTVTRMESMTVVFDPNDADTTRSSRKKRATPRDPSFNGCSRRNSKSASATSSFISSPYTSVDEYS
Method: Determination of the Effect of the Compounds of the Present Invention on IP1 in HEK293 Cells with Stable Expression of NK3
The objective of this test example was to determine the antagonism effect of the compounds on the activity of HEK293-NK3 cells.
3. Experimental Methods: • 1. […] HEK293-NK3 cell line was cultured in complete medium and seeded in the coated dishes at 37° C., 5% CO2 until 70%˜90% confluence. • 3. […] The cells were digested and resuspended in 1× Stimulation Buffer (IP-ONE Gq Kit), seeded into the 384-well cell culture plate (which contained the compound to be tested) at 5,000 cells/well/5 μL by using Multidrop Combi. The culture plate was centrifuged at 300 rpm at room temperature for 60 seconds, and then incubated at 37° C., 5% CO2 for 15 minutes. • 5. The cell culture plate was taken out from the CO2 incubator. […] The culture plate was centrifuged at 300 rpm at room temperature for 60 seconds, and then incubated at 37° C., 5% CO2 for 2 hours. • 6. The cell culture plate was taken out from the CO2 incubator. 5 μL of IP1 d2 reagent and then 5 μL of IP1 Tb Cryptate Antibody reagent were added by using Multidrop Combi. The culture plate was centrifuged at room temperature at 300 rpm for 60 seconds, and left to stand at room temperature for 1 hour. • 7. The plate was read by using EnVision Multilabel Reader, and data were collected at the same time.
The fluorescence signal ratio (Ratio) was read and collected by EnVision Multilabel Reader. According to the readings of the Low control (DMSO control) and High control (p)ositive compound) experimental groups, the antagonism percentage data were calculated as {% antagonism=(Ratio sample−Ratio low control)/(Ratio high control−Ratio low control)×100}.

NK3 receptors [3] = biological target: T1, NK3 receptors; test: Calcium ion fluidity (FLIPR) in cells with stable expression of NK3 receptors; type: cell-based; conditions: calcium signal, antagonist mode, read-out: NK3R IC50 (nM) FLIPR
From the text: Determination of the Effect of the Compounds of the Present Invention on Calcium Ion Fluidity in Cells with Stable Expression of NK3 Receptors
Experimental objective: The objective of this test example was to determine the inhibitory effect of the compounds on NK3 receptors.
Experimental Methods: • 1. […] Probenecid and BSA were freshly added on the day of the experiment. The buffers for the experiments included dye buffer, compound dilution buffer and the like. • 2. […] The culture medium was discarded, and 20 μL of dye was added. The cells were incubated at 37° C. in the dark for 60 min, and then the calcium signal was read. • 4. The antagonist was prepared before the experiments. […] The plate was transferred to FLIPR, and 6× concentration of the agonist compound was added at 5 μL/well. The values were read and the data were saved by using FLIPR. The total assay volume was 30 μL, comprising 20 μL/well of dye buffer, 5 μL/well of 5× concentration of the experimental compound, and 5 μL/well of 6× concentration of the agonist compound.
The calcium signal value was read by FLIPR. The output of each sampling time point in the experiment was calculated as the ratio of the signals at wavelengths of 340/510 nm to 380/510 nm. The maximum minus minimum value was calculated from the ratio signal curve. The IC50 value of the compound was calculated by fitting the data of inhibition rate percentage and ten concentrations to the parametric nonlinear logistic equation by using GraphPad prism.

[4] = Pharmacokinetic assay in SD rats (plasma and brain tissue); type: in vivo; conditions: rat, po, male SD rats, p.o. 5 mg/kg; for AUC(0-t): read-out: Area under curve AUC0-t; for Tmax: read-out: Peak time tmax; for Cmax: read-out: Plasma concentration Cmax
Method: Test Example 4. Pharmacokinetic Assays in SD Rats
SD rats were used as test animals. The in vivo (plasma and brain tissue) pharmacokinetic behavior of the compounds of the present invention was investigated by oral administration of the compound in rats at a dose of 5 mg/kg.
Male SD rats (21 animals per group), purchased from Shanghai JieSiJie Laboratory Animal Co., Ltd., under the Animal Production License Number of SCXK (Shanghai) 2013-0006 No. 311620400001794.
The experimental drug was dissolved in 0.5% CMC-Na (1% Tween 80) by sonication to formulate a clear solution or a homogeneous suspension.
After an overnight fast, male SD rats (21 animals per group) were administered p.o. with the experimental drug at an administration dose of 5 mg/kg and the administration volume of 10 mL/kg.
Rats were sacrificed with CO2 at 0, 0.5, 1, 2, 4, 8 and 24 hours before and after the drug administration. 8 mL of blood was collected by cardiac puncture, placed in EDTA-K2 tubes, and centrifuged at 4° C. at 6,000 rpm for 6 min. Plasma was separated and stored at −80° C. The whole brain tissue was dissected and weighed, and then placed in a 2 mL centrifuge tube and stored at −80° C.
2.6 Sample Processing: • 1) 160 μL of acetonitrile was added to 40 μL of plasma sample for precipitation. After mixing, the sample was centrifuged at 3500×g for 5-20 minutes. • 2) 90 μL of acetonitrile containing internal standard (100 ng/mL) was added to 30 μL of plasma or brain homogenate sample for precipitation. After mixing, the sample was centrifuged at 13,000 rpm for 8 minutes. • 3) 70 μL of water was added to 70 μL of treated supernatant, and mixed by vortex for 10 minutes. Then 20 μL of the sample was analyzed by LC/MS/MS to determine the concentration of the compound to be tested. The LC/MS/MS instrument for analysis was AB Sciex API 4000 Qtrap.
2.7 Liquid Chromatography Analysis: • Liquid chromatography conditions: Shimadzu LC-20AD pump • Chromatographic column: Agilent ZORBAX XDB-C18 (50×2.1 mm, 3.5 μm) Mobile phase: Eluent A was 0.1% formic acid in water, and Eluent B was acetonitrile. • Flow rate: 0.4 mL/min • Elution time: 0-4.0 minutes, the eluate was as follows:
The major pharmacokinetic parameters were calculated by using WinNonlin 6.1, and the results of the pharmacokinetic experiments in rats were shown in Table 3 below: […]

Row | Structure (SMILES) | AUCΔTST [1] | IC50 (NK3 receptors [2]) | IC50 (NK3 receptors [3]) | AUC(0-t) ([4]; Brain) | Tmax ([4]; Brain) | Cmax ([4]; Brain) | AUC(0-t) ([4]; Plasma) | Tmax ([4]; Plasma) | Cmax ([4]; Plasma) | half-life ([4]; Plasma, read-out: Half life t1/2 (converted)) | MRT ([4]; Plasma, read-out: Mean residence time MRT)
1 | C[C@@H]1c2nnc(-c3nc4ccccc4s3)n2CCN1C(=O)c1ccc(Cl)cc1 [Example 3, (R)-(3-(Benzo[d]thiazol-2-yl)-8-methyl-5,6-dihydro-[1,2,4]triazolo[4,3-a]pyrazin-7 (8H)-yl)(4-chlorophenyl)methanone] | 81.3 ± 37.4 °C · min | 68.7 nM | 30.5 nM |  |  |  |  |  |  |  | 
2 | [2H]c1c([2H])c(C(=O)N2CCn3c(-c4nc5ccccc5s4)nnc3[C@H]2C)c([2H])c([2H])c1F [Example 2, (R)-(3-(Benzo[d]thiazol-2-yl)-8-methyl-5,6-dihydro-[1,2,4]triazolo[4,3-a]pyrazin-7 (8H)-yl)(4-fluorophenyl-2,3,5,6-d4)methanone] | 71.3 ± 25.5 °C · min | 171 nM | 58.2 nM |  |  |  |  |  |  |  | 
3 | C[C@@H]1c2nnc(-c3nc4cc(F)c(F)cc4s3)n2CCN1C(=O)c1ccc(F)cc1 [Example 17, (R)-(3-(5,6-Difluorobenzo[d]thiazol-2-yl)-8-methyl-5,6-dihydro-[1,2,4]triazolo[4,3-a]pyrazin-7(8H)-yl)(4-fluorophenyl)methanone] |  | 15.2 nM | 6.81 nM | 3230 ng·h/mL | 4 h | 1120 ng/mL | 46700 ng·h/mL | 6 h | 2300 ng/mL |  | 
4 | Cc1nsc(-c2nnc3n2CCN(C(=O)c2ccc(F)cc2)[C@@H]3C)n1 [Fezolinetant] | 116.7 ± 50.6 °C · min |  | 904 nM |  |  |  |  |  |  |  | 
5 | C[C@@H]1c2nnc(-c3nc(Cl)ns3)n2CCN1C(=O)c1ccc(Cl)cc1 [Example 57, (R)-(3-(3-Chloro-1,2,4-thiadiazol-5-yl)-8-methyl-5,6-dihydro-[1,2,4]triazolo[4,3-a]pyrazin-7(8H)-yl)(4-chlorophenyl)methanone] |  | 28.9 nM | 61 nM | 2340 ng·h/mL | 1 h | 670 ng/mL | 7130 ng·h/mL | 2 h | 930 ng/mL | 3.2 h | 4.8 h
6 | C[C@@H]1c2nnc(-c3nc4cnc(Cl)cc4s3)n2CCN1C(=O)c1ccc(Cl)cc1 [Example 97, (R)-(4-Chlorophenyl)(3-(6-chlorothiazolo[4,5-c]pyridin-2-yl)-8-methyl-5,6-dihydro-[1,2,4]triazolo[4,3-a]pyrazin-7(8H)-yl)methanone] |  | 172 nM | 156 nM |  |  |  |  |  |  |  | 
7 | C[C@@H]1c2nnc(-c3nc4ccc(F)cc4s3)n2CCN1C(=O)c1ccc(F)cc1 [Example 12, (R)-(3-(6-Fluorobenzo[d]thiazol-2-yl)-8-methyl-5,6-dihydro-[1,2,4]triazolo[4,3-a]pyrazin-7(8H)-yl)(4-fluorophenyl)methanone] |  | 39.3 nM | 37 nM |  |  |  |  |  |  |  | 
8 | [2H]c1cc(C(=O)N2CCn3c(-c4nc5ccc(Cl)cc5s4)nnc3[C@H]2C)ccc1Cl [Example 102, (R)-(3-(6-Chlorobenzo[d]thiazol-2-yl)-8-methyl-5,6-dihydro-[1,2,4]triazolo[4,3-a]pyrazin-7(8H)-yl)(4-chlorophenyl-3-d)methanone] |  | 16.4 nM | 32.5 nM |  |  |  |  |  |  |  | 

Reference: patent publication US20230271969A1, “NITROGEN-CONTAINING FUSED RING DERIVATIVE INHIBITOR, PREPARATION METHOD THEREFOR AND USE THEREOF” (Shanghai Hansoh Biomedical Co., Ltd., priority 2020, published 2023)
